Marks after values point to notes of the source that are not given here.
Tests used:
[1] = test system: time spent on the open-arms; experiment: Elevated plus-maze test; format: in vivo, N.I.H. Swiss-Webster mice; conditions: IP, 50% hpbcd, 10 mg/kg
Excerpt: The theoretical basis for the elevated plus-maze test is similar to that of the fight/dark transition test. As it was described previously by Pellow et al. J. Neurosci. Meth. 14:149-167 (1985)), the elevated plus-maze apparatus is designed to utilize the mice's natural aversion to open spaces. The apparatus consists of two open-arms and two enclosed-arms. The elevated plus-maze test allows for two measures of anxiety, the number of entries into the open-arms and the time spent on the open-arms, both expressed as a percentage of the total number of entries and time spent in/on both the open-arms and enclosed-arms.
Male N.I.H Swiss-Webster mice (Harlan, Indianapolis, Ind.) weighing 15-20 g were housed four per cage in polyethylene cages with sawdust bedding. The colony room was environmentally controlled (22° C.) with a 12 hr light/dark cycle (0600-1800 hr). Food and water were available ad libitum, except during testing. The experiments were run from 0700-1500 hr and groups were counterbalanced for time of day effects. Mice were only administered drug or vehicle once.
The method used was previously described (Lister, Psychopharmacol. 92:180-185 (1987)). The apparatus included two open arms perpendicular to two enclosed arms elevated 50 cm from the floor. Each arm was 50 cm long and the walls of the enclosed arms were 40 cm tall. The maze was made completely of black plexiglass. Incandescent 200 W light bulbs were above each of the open arms to produce a strong contrast between the open arms and the enclosed arms.
[…] Swiss-Webster mice were placed in the center of the plus-maze facing an open arm. During the 5 min test period, the number of entries onto the open arms and the enclosed arms, and the time spent in the open arms and enclosed arms were measured. All four paws had to be within an arm for the dependent variable to be measured. Therefore, the time spent in the center of the maze is not counted, so the total time spent in the open arms and the enclosed arms may not equal 5 min.

[2] = test system: metrazol induced convulsions; experiment: Antimetrazol activity in mice; format: in vivo; conditions: 10 mg/kg, 50% hpbcd; for PTZ % Protected: i.p., 10 min; for % Protected: IP, 10 min before metrazol 85 mg/kg
Experimental: Experiments were also performed to determine the physiological relevance of neuroactive steroid and GABA receptor interactions by assessing the ability of compounds of the present invention to prevent metrazol induced convulsions in mice. Mice were injected with various doses of the test compounds of the invention, 10 minutes prior to the injection of metrazol. The time to onset of myoclonus (presence of forelimb clonic activity) induced by metrazol was determined by observing each mouse for a period of 30 minutes. In control mice, metrazol (85 mg/kg) will induce convulsion in 95% of the animals.
(§1) The anticonvulsant tests are similar to that described above.

[3] = target: GABA receptor complex (GRC); experiment: [35S]TBPS binding in rat cerebral cortex P2 homogenate; conditions: for IC50: concentration to inhibit 50% of control [35S]TBPS binding, 2 nM [35S]TBPS; for IMAX (maximum inhibition): maximum inhibition of [35S]TBPS binding
Method in brief: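 Male Sprague-Dawley rat cortical P2 homogenate (0.5 mg protein) incubated with 2 nM [35S]TBPS in 50 mM Na/K phosphate pH 7.4, 200 mM NaCl, with GABA plus (+)bicuculline, 90 min at 25 °C. Filter-bound radioactivity counted; non-specific binding with […]; IC50 and maximal inhibition by nonlinear regression.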

[4] = test system: maximal electroshock tonic seizure; experiment: Maximal electroshock test; format: in vivo, mice; conditions: 20 mg/kg, i.p., 10 min, 50% hpbcd
Excerpt: as §1

[5] = target: T1, Mineralocorticoid Receptors (Rattus norvegicus, UniProt P22199); experiment: Inhibition of 3H-Aldosterone Binding to Hippocampal Mineralocorticoid Receptors; conditions: competitor 10^−6M; 3 nM 3H-aldosterone, RU28362 0.5 μM
T1 construct: To isolate the mineralocorticoid receptor, brain cytosol fractions were prepared; from tissue; host or cells: brain (hippocampal) cytosol of adrenalectomized rats
T1 sequence (P22199 1-981): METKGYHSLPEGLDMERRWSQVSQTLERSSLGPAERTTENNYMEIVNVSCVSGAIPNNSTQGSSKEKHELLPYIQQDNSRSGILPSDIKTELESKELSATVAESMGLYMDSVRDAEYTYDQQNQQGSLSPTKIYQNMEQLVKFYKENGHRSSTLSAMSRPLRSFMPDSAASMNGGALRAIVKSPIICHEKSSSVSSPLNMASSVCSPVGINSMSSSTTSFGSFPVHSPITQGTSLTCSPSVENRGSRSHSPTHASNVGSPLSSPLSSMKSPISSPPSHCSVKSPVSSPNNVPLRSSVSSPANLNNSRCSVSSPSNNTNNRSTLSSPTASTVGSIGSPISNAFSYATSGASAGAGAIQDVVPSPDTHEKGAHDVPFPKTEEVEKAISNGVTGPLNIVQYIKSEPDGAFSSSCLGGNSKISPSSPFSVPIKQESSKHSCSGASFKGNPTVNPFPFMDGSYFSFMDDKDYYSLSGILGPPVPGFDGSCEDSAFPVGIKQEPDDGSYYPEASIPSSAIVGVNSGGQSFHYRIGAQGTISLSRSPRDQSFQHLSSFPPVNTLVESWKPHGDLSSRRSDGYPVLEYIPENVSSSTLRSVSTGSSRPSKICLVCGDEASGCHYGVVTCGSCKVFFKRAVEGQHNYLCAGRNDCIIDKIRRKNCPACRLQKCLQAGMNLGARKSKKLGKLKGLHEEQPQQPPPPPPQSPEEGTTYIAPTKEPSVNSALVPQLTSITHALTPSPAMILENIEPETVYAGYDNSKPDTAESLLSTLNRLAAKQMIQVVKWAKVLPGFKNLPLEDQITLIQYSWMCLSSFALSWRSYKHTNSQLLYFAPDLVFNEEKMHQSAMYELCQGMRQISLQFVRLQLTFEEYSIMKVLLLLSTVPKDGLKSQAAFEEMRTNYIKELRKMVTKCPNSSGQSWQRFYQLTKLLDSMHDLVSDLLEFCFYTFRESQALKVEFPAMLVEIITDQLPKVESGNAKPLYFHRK
Experimental: (§2) Various hormonal activities of representative neuroactive steroids were further studied through testing their potential estrogenic, mineralocorticoid and glucocorticoid activities. These activities were analyzed by monitoring the ability of the compounds to inhibit binding of the steroid hormones to their respective hormone receptors.
In Table 4, rats were adrenalectornized 3 days prior to sacrifice.

Progesterone Receptors = experiment: Inhibition of 3H-Progesterone Binding to the Bovine Uteral Progesterone Receptors; conditions: competitor 10^−6M; 3H-progesterone 0.15 nM
Estrogen Receptors = target: T2, Estrogen Receptors (Bos taurus, UniProt P49884); experiment: Inhibition of 3H-Estradiol Binding to Bovine Uteral Estrogen Receptors; conditions: competitor 10^−6M; 3H-estradiol 0.15 nM
T2 construct: from tissue; host or cells: bovine uterus cytosol
T2 sequence (P49884 1-596): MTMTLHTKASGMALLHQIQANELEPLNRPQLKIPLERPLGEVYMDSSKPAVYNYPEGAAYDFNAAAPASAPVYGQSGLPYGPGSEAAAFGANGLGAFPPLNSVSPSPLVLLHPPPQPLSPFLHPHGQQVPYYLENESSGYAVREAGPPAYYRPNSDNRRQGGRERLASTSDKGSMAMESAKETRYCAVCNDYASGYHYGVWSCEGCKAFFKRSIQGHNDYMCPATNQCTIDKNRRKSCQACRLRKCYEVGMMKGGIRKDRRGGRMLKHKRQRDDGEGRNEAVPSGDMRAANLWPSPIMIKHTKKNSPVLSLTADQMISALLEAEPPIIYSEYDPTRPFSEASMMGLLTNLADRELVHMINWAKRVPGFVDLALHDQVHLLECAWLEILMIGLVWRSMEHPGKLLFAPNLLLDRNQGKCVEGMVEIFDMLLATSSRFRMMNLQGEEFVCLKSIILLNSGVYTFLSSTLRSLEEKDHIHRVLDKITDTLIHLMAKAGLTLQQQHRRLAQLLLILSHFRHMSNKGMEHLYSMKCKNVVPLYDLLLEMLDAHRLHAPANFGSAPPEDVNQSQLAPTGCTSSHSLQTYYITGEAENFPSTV
Experimental: as §2

loss-of-righting reflex = experiment: Anesthetic activity, loss-of-righting reflex; format: in vivo, mice; conditions: iv, 10 mg/kg
Experimental: The compounds of and used in the invention can also be used for anesthetic indications at high doses. However, the preferred route of administration to induce anesthesia is intravenous (i.v.) administration. In animals, a drug's anesthetic properties is measured by the drug's ability to produce a loss-of-righting reflex. The loss-of-righting reflex is defined as the inability of an animal to right itself within 30 seconds when placed on its back. Mice were administered drug i.v. in the lateral tail vein. Following administration, mice were placed on their backs and observed for loss-of-righting reflex.

Row | Compound | Plus-Maze (% Control), time spent on the open-arms [1] [% Control] | PTZ % Protected [2] | % Protected [2] [%] | IC50 [3] [nM] | IMAX (maximum inhibition) [3] [%] | melting point [°C] | MES % Protected [4] | % of Inhibition [5] [%] | % of Inhibition (Progesterone Receptors) [%] | % of Inhibition (Estrogen Receptors) [%] | Loss-of-Righting Reflex (%) (loss-of-righting reflex; 10% hpbcd) | Loss-of-Righting Reflex (%) (loss-of-righting reflex; 50% hpbcd)
1 | COC1CCC2C3CCC4CC(O)(C#Cc5ccc(C(C)=O)cc5)CCC4C3CCC12C (stereo not drawn) [3β-(4′-Acetylphenylethynyl)-3α-hydroxy-17β-methoxy-19-nor-5β-androstane] | 156 | 12.5^c % | 31 | 8 | 96 | 148 to 150 | 25^b % | – | – | – | – | –
2 | C[C@H](O)[C@H]1CC[C@H]2[C@@H]3CC[C@H]4C[C@H](O)CC[C@]4(C)[C@H]3CC[C@]12C [5α-pregnan-3α,20-diol, 5α-pregnan-3α,20α-diol] | – | – | – | – | – | – | – | 0 | 6 | 0 | – | –
3 | COCC1(O)CCC2(C)C(CCC3C2CCC2(C)C(OC)CCC32)C1 (stereo not drawn) [3α-Hydroxy-17β-methoxy-3β-methoxymethyl-5α-androstane] | 130 | 87.5^c % | 87.5 | 64 | 100 | – | 18.7^b % | – | – | – | 50 | –
4 | CC(O)C1CCC2C3CCC4CC(O)CCC4(C)C3CCC12C (stereo not drawn) [5β-pregnan-3α,20α-diol] | – | – | – | – | – | – | – | 0 | 0 | 8 | – | –
5 | 5α-pregnan-3β,20-trimethyl-3α,20-diol | – | – | – | – | – | – | – | 0 | 8 | 0 | – | –
6 | C#C[C@@]1(O)CC[C@@]2(C)[C@H](CC[C@@H]3[C@@H]2CC[C@]2(C)[C@@H](OC)CC[C@@H]32)C1 [3β-ethynyl-3α-hydroxy-17β-methoxy-5β-androstane] | 123 | 50^c % | 50 | 49 | 101 | – | 31.2^b % | – | – | – | – | 50
7 | CO[C@H]1CC[C@H]2[C@@H]3CC[C@@H]4C[C@H](O)CC[C@]4(C)[C@H]3CC[C@]12C [3α-Hydroxy-17β-methoxy-5β-androstane] | 115 | 87.5^c % | – | 62 | 106 | 151 to 156 | 87.5^b % | – | – | – | – | –

Source: patent publication US6780853B1, “Neuroactive steroids of the androstane and pregnane series” (priority 1995, dated 2004)
